Source: US20060210659A1, “Anti-obesity agent” (priority 2005, published 2006)

Assay: Lipid-absorption suppressive activity: plasma triglyceride after oral salad oil tolerance
Type: in vivo, male ddy line mice
Experimental: Orbital blood collection from male ddy line mice of six weeks old (six animals per group) was carried out, and then 10 mL/kg of water or 0.1 g/kg of aqueous actein solution was orally administrated to each of them. After 30 minutes, 10 mL/kg of salad oil was orally administrated, orbital blood collection was performed after 180 minutes again, and blood plasma was separated to measure the triglyceride level.
Orbital blood collection from male ddy line mice of six weeks old (six animals per group) was carried out, and then 10 mL/kg of water or 0.2 g/kg or 1.0 g/kg of aqueous solution of Black cohosh extract (Example 1) was orally administrated. After 30 minutes, 10 mL/kg of salad oil was orally administrated, orbital blood collection was performed after 180 minutes again, and blood plasma was separated to measure the triglyceride level.

Compound: CC(=O)O[C@@H]1C[C@@]23C[C@@]24CC[C@H](O[C@@H]2OC[C@@H](O)[C@H](O)[C@H]2O)C(C)(C)[C@@H]4CC[C@H]3[C@]2(C)C[C@@H]3O[C@]4(C[C@@H](C)[C@@H]3[C@@]12C)O[C@H](O)[C@@]1(C)O[C@@H]41 [actein]
- Triglyceride level in blood plasma, before salad oil administration (0.1 g/kg actein oral group, baseline blood collected before dosing, mean ± SD, six animals): 110.4 ± 22.2 mg/dL
- Triglyceride level in blood plasma, after 180 minutes (0.1 g/kg actein oral, 30 min before 10 mL/kg salad oil, 180 min after oil, mean ± SD): 248.6 ± 27.8 mg/dL
- Triglyceride level in blood plasma after 180 minutes of salad oil tolerance (in words) (0.1 g/kg actein oral, vs water group): significantly suppressed
